≈ marks a conversion by molar mass, not a printed value. Calls of active or inactive are those of the source. The calls are words filed in the database; no cut-off is given here.
Columns and labels:
Klebsiella pneumoniae [1] = test: Antibacterial activity against non-gentamicin-resistant Klebsiella pneumoniae clinical isolate after 18 hrs by agar dilution method; assay type: functional
Enterobacter cloacae [2] = test: Antibacterial activity against non-gentamicin-resistant Enterobacter cloacae clinical isolate after 18 hrs by agar dilution method; assay type: functional
Citrobacter koseri = test: Antibacterial activity against non-gentamicin-resistant Citrobacter diversus clinical isolate after 18 hrs by agar dilution method; assay type: functional
Morganella morganii [3] = test: Antibacterial activity against non-gentamicin-resistant Morganella morganii clinical isolate after 18 hrs by agar dilution method; assay type: functional
Citrobacter freundii [4] = test: Antibacterial activity against non-gentamicin-resistant Citrobacter freundii clinical isolate after 18 hrs by agar dilution method; assay type: functional
Providencia rettgeri [5] = test: Antibacterial activity against non-gentamicin-resistant Proteus rettgeri clinical isolate after 18 hrs by agar dilution method; assay type: functional
[6] = system: Acinetobacter calcoaceticus; test: Antibacterial activity against non-gentamicin-resistant Acinetobacter calcoaceticus clinical isolate after 18 hrs by agar dilution method; assay type: functional
Pseudomonas aeruginosa [7] = test: Antibacterial activity against non-gentamicin-resistant Pseudomonas aeruginosa clinical isolate after 18 hrs by agar dilution method; assay type: functional
Pseudomonas sp. [8] = test: Antibacterial activity against non-gentamicin-resistant Pseudomonas spp. clinical isolate after 18 hrs by agar dilution method; assay type: functional
Haemophilus influenzae = test: Antibacterial activity against non-gentamicin-resistant Haemophilus influenzae clinical isolate after 18 hrs by agar dilution method; assay type: functional
[9] = system: Haemophilus parainfluenzae; test: Antibacterial activity against non-gentamicin-resistant Haemophilus parainfluenzae clinical isolate after 18 hrs by agar dilution method; assay type: functional
Staphylococcus aureus [10] = test: Antibacterial activity against non-gentamicin-resistant Staphylococcus aureus clinical isolate after 18 hrs by agar dilution method; assay type: functional
[11] = system: Staphylococcus epidermidis; test: Antibacterial activity against non-gentamicin-resistant Staphylococcus epidermidis clinical isolate after 18 hrs by agar dilution method; assay type: functional
Klebsiella pneumoniae [12] = test: Antibacterial activity against non-gentamicin-resistant Klebsiella pneumoniae clinical isolate assessed as susceptible isolates after 18 hrs by agar dilution method; assay type: functional
Enterobacter cloacae [13] = test: Antibacterial activity against non-gentamicin-resistant Enterobacter cloacae clinical isolate assessed as susceptible isolates after 18 hrs by agar dilution method; assay type: functional
Klebsiella aerogenes [14] = test: Antibacterial activity against non-gentamicin-resistant Enterobacter aerogenes clinical isolate assessed as susceptible isolates after 18 hrs by agar dilution method; assay type: functional
Proteus mirabilis [15] = test: Antibacterial activity against non-gentamicin-resistant Proteus mirabilis clinical isolate assessed as susceptible isolates after 18 hrs by agar dilution method; assay type: functional
Serratia marcescens [16] = test: Antibacterial activity against non-gentamicin-resistant Serratia marcescens clinical isolate assessed as susceptible isolates after 18 hrs by agar dilution method; assay type: functional
Morganella morganii [17] = test: Antibacterial activity against non-gentamicin-resistant Morganella morganii clinical isolate assessed as susceptible isolates after 18 hrs by agar dilution method; assay type: functional
Citrobacter freundii [18] = test: Antibacterial activity against non-gentamicin-resistant Citrobacter freundii clinical isolate assessed as susceptible isolates after 18 hrs by agar dilution method; assay type: functional
Providencia rettgeri [19] = test: Antibacterial activity against non-gentamicin-resistant Proteus rettgeri clinical isolate assessed as susceptible isolates after 18 hrs by agar dilution method; assay type: functional
[20] = system: Haemophilus parainfluenzae; test: Antibacterial activity against non-gentamicin-resistant Haemophilus parainfluenzae clinical isolate assessed as susceptible isolates after 18 hrs by agar dilution method; assay type: functional, organism-based
Staphylococcus aureus [21] = test: Antibacterial activity against non-gentamicin-resistant Staphylococcus aureus clinical isolate assessed as susceptible isolates after 18 hrs by agar dilution method; assay type: functional
Klebsiella pneumoniae [22] = test: Antibacterial activity against gentamicin-resistant Klebsiella pneumoniae clinical isolate after 18 hrs by agar dilution method; assay type: functional
Enterobacter cloacae [23] = test: Antibacterial activity against gentamicin-resistant Enterobacter cloacae clinical isolate after 18 hrs by agar dilution method; assay type: functional
Klebsiella aerogenes [24] = test: Antibacterial activity against gentamicin-resistant Enterobacter aerogenes clinical isolate after 18 hrs by agar dilution method; assay type: functional
Proteus mirabilis [25] = test: Antibacterial activity against gentamicin-resistant Proteus mirabilis clinical isolate after 18 hrs by agar dilution method; assay type: functional
Serratia marcescens [26] = test: Antibacterial activity against gentamicin-resistant Serratia marcescens clinical isolate after 18 hrs by agar dilution method; assay type: functional
Morganella morganii [27] = test: Antibacterial activity against gentamicin-resistant Morganella morganii clinical isolate after 18 hrs by agar dilution method; assay type: functional
Citrobacter freundii [28] = test: Antibacterial activity against gentamicin-resistant Citrobacter freundii clinical isolate after 18 hrs by agar dilution method; assay type: functional
Pseudomonas aeruginosa [29] = test: Antibacterial activity against gentamicin-resistant Pseudomonas aeruginosa clinical isolate after 18 hrs by agar dilution method; assay type: functional
Staphylococcus aureus [30] = test: Antibacterial activity against gentamicin-resistant Staphylococcus aureus clinical isolate after 18 hrs by agar dilution method; assay type: functional
[31] = system: Staphylococcus epidermidis; test: Antibacterial activity against gentamicin-resistant Staphylococcus epidermidis clinical isolate after 18 hrs by agar dilution method; assay type: functional
Escherichia coli = test: Antibacterial activity against gentamicin-resistant Escherichia coli clinical isolate assessed as susceptible isolates after 18 hrs by agar dilution method; assay type: functional
Klebsiella pneumoniae [32] = test: Antibacterial activity against gentamicin-resistant Klebsiella pneumoniae clinical isolate assessed as susceptible isolates after 18 hrs by agar dilution method; assay type: functional
Enterobacter cloacae [33] = test: Antibacterial activity against gentamicin-resistant Enterobacter cloacae clinical isolate assessed as susceptible isolates after 18 hrs by agar dilution method; assay type: functional
Proteus mirabilis [34] = test: Antibacterial activity against gentamicin-resistant Proteus mirabilis clinical isolate assessed as susceptible isolates after 18 hrs by agar dilution method; assay type: functional
Serratia marcescens [35] = test: Antibacterial activity against gentamicin-resistant Serratia marcescens clinical isolate assessed as susceptible isolates after 18 hrs by agar dilution method; assay type: functional
Morganella morganii [36] = test: Antibacterial activity against gentamicin-resistant Morganella morganii clinical isolate assessed as susceptible isolates after 18 hrs by agar dilution method; assay type: functional
Pseudomonas aeruginosa [37] = test: Antibacterial activity against gentamicin-resistant Pseudomonas aeruginosa clinical isolate assessed as susceptible isolates after 18 hrs by agar dilution method; assay type: functional
Pseudomonas sp. [38] = test: Antibacterial activity against gentamicin-resistant Pseudomonas spp. clinical isolate assessed as susceptible isolates after 18 hrs by agar dilution method; assay type: functional
Staphylococcus aureus [39] = test: Antibacterial activity against gentamicin-resistant Staphylococcus aureus clinical isolate assessed as susceptible isolates after 18 hrs by agar dilution method; assay type: functional
[40] = system: Staphylococcus epidermidis; test: Antibacterial activity against gentamicin-resistant Staphylococcus epidermidis clinical isolate assessed as susceptible isolates after 18 hrs by agar dilution method; assay type: functional
Enterococcus faecalis = test: Antibacterial activity against gentamicin-resistant Enterococcus faecalis clinical isolate assessed as susceptible isolates after 18 hrs by agar dilution method; assay type: functional, organism-based
[41] = system: Escherichia coli BL21(DE3); test: Acetylation activity of AAC(6')-APH(2'') in Escherichia coli BL21(DE3) assessed as production of free pyridine-4-thiolate
[42] = system: Escherichia coli BL21(DE3); test: Phosphorylation activity of AAC(6')-APH(2'') in Escherichia coli BL21(DE3) assessed as oxidation of NADH by pyruvate kinase

## CCN[C@@H]1C[C@H](N)[C@@H](O[C@@H]2OC(C(C)N)=CC[C@@H]2N)[C@H](O)[C@H]1O[C@H]1OC[C@](C)(O)[C@H](NC)[C@H]1O (stereo not given in full) [VERTILMICIN]
Klebsiella pneumoniae [1]
  MIC50: 0.25 µg/mL (≈ 0.511 µM)
  MIC90: 0.5 µg/mL (≈ 1.02 µM)
Enterobacter cloacae [2]
  MIC50: 0.25 µg/mL (≈ 0.511 µM)
  MIC90: 0.5 µg/mL (≈ 1.02 µM)
Citrobacter koseri
  MIC: 0.25 µg/mL (≈ 0.511 µM)
  MIC50: 0.25 µg/mL (≈ 0.511 µM)
  MIC90: 0.5 µg/mL (≈ 1.02 µM)
Morganella morganii [3]
  MIC50: 1 µg/mL (≈ 2.04 µM)
  MIC90: 2 µg/mL (≈ 4.08 µM)
Citrobacter freundii [4]
  MIC50: 0.5 µg/mL (≈ 1.02 µM)
  MIC90: 8 µg/mL (≈ 16.3 µM)
Providencia rettgeri [5]
  MIC50: 2 µg/mL (≈ 4.08 µM)
  MIC90: 8 µg/mL (≈ 16.3 µM)
[6]
  MIC50: 1 µg/mL (≈ 2.04 µM)
  MIC90: 2 µg/mL (≈ 4.08 µM)
Pseudomonas aeruginosa [7]
  MIC50: 8 µg/mL (≈ 16.3 µM)
  MIC90: 32 µg/mL (≈ 65.4 µM)
Pseudomonas sp. [8]
  MIC50: 8 µg/mL (≈ 16.3 µM)
  MIC90: 16 µg/mL (≈ 32.7 µM)
Haemophilus influenzae
  MIC50: 1 µg/mL (≈ 2.04 µM)
  MIC90: 1 µg/mL (≈ 2.04 µM)
[9]
  MIC50: 1 µg/mL (≈ 2.04 µM)
  MIC90: 2 µg/mL (≈ 4.08 µM)
Staphylococcus aureus [10]
  MIC50: 0.125 µg/mL (≈ 0.255 µM)
  MIC90: 2 µg/mL (≈ 4.08 µM)
[11]
  MIC50: 0.125 µg/mL (≈ 0.255 µM)
  MIC90: 1 µg/mL (≈ 2.04 µM)
Klebsiella pneumoniae [12]
  Activity: 97.6%
Enterobacter cloacae [13]
  Activity: 100%
Klebsiella aerogenes [14]
  Activity: 98.1%
Proteus mirabilis [15]
  Activity: 98.4%
Serratia marcescens [16]
  Activity: 100%
Morganella morganii [17]
  Activity: 100%
Citrobacter freundii [18]
  Activity: 90%
Providencia rettgeri [19]
  Activity: 92.3%
[20]
  Activity: inactive
Staphylococcus aureus [21]
  Activity: 94.8%
Klebsiella pneumoniae [22]
  MIC50: 16 µg/mL (≈ 32.7 µM)
  MIC90: > 128 µg/mL
Enterobacter cloacae [23]
  MIC50: 32 µg/mL (≈ 65.4 µM)
  MIC90: > 128 µg/mL
Klebsiella aerogenes [24]
  MIC50: 16 µg/mL (≈ 32.7 µM)
  MIC90: > 128 µg/mL
Proteus mirabilis [25]
  MIC50: 32 µg/mL (≈ 65.4 µM)
  MIC90: > 128 µg/mL
Serratia marcescens [26]
  MIC50: > 128 µg/mL
  MIC90: > 128 µg/mL
Morganella morganii [27]
  MIC50: 8 µg/mL (≈ 16.3 µM)
  MIC90: 32 µg/mL (≈ 65.4 µM)
Citrobacter freundii [28]
  MIC50: 8 µg/mL (≈ 16.3 µM)
  MIC90: 32 µg/mL (≈ 65.4 µM)
Pseudomonas aeruginosa [29]
  MIC50: 32 µg/mL (≈ 65.4 µM)
  MIC90: > 128 µg/mL
Staphylococcus aureus [30]
  MIC50: 4 µg/mL (≈ 8.17 µM)
  MIC90: 16 µg/mL (≈ 32.7 µM)
[31]
  MIC50: 2 µg/mL (≈ 4.08 µM)
  MIC90: 16 µg/mL (≈ 32.7 µM)
Escherichia coli
  Activity: 68.4%
Klebsiella pneumoniae [32]
  Activity: 32.1%
Enterobacter cloacae [33]
  Activity: 26.3%
Proteus mirabilis [34]
  Activity: 36.4%
Serratia marcescens [35]
  Activity: 10%
Morganella morganii [36]
  Activity: 50%
Pseudomonas aeruginosa [37]
  Activity: 17.6%
Pseudomonas sp. [38]
  Activity: 7.7%
Staphylococcus aureus [39]
  Activity: 83.3%
[40]
  Activity: 88.5%
Enterococcus faecalis
  Activity: inactive
[41]
  Km: 469 µM
[42]
  Km: 104 µM

Source: ChEMBL document CHEMBL1275533, “In vitro antibacterial activity of vertilmicin and its susceptibility to modifications by the recombinant AAC6'-APH2'' enzyme” (2008)
